Here are results for one substance from patent US20170035791A1, “COMBINATION OF BETA-GLUCOSYLCERAMIDE AND POLYETHOXYLATED CASTOR OIL AND OTHER ADJUVANTS FOR CONTROLING BLOOD SUGAR LEVELS, IMMUNOPROTECTION AND HEPATOPROTECTION” (NATURAL SHIELD ISRAEL 2016 LTD, priority 2014, published 2017).

The test system of experiment [1] is human subject. Put plainly: Blood sugar levels in a human subject after drinking Coca Cola with GC or GC with CE add-ons. The class given is in vivo. To be noted: 500 ml Coca Cola with 28 mg GC add-on. Here is the method: A human subject healthy person was monitored for blood sugar levels for 2 hours every 15 minutes following an overnight fast and drinking of 500 ml of Coca Cola alone or Coca Cola with GC or GC with CE add-ons.

Experiment [2] has as its system C57B1/6 mice. Put plainly: Blood sugar AUC in mice after oral Coca Cola with GC and/or CE add-on. To be noted: Coca Cola + add-on 350 μl/mouse by gavage, glucose at 0, 15, 30 min, Coca Cola alone 4785 ± 208. Format: in vivo. The method, then:
Male C57B1/6 mice (11-12 weeks old) were obtained from Harlan Laboratories (Jerusalem, Israel) and maintained in the Animal Core of the Hadassah-Hebrew University Medical School. All mice were administered standard laboratory chow and water ad libitum and kept in a 12-hour light/dark cycle. SSBs (Coca Cola or orange flavored soda) including additives GC and/or CE were orally administered in a volume of 300-350 μl per mouse by gavage. The animal experiments were carried out according to the guidelines of the Hebrew University-Hadassah Institutional Committee for Care and Use of Laboratory Animals and with the committee's approval. […]
To evaluate the ability of GC to control blood sugar levels during consumption of a high glucose beverage, the inventors examined the effect of GC alone and of GC with CE combination, on mice consuming various high sugar soft drinks. […] Glucose levels were measured at 0, 15, and 30 min after Coca Cola administration.
To further evaluate the effect of C:E on blood sugar levels following consumption of Coca Cola, the inventors performed the experiment in Table 2, including group A receiving orally Coca Cola +C:E (350 μl/mouse by gavage) and group B receiving Coca Cola only (300 μl/mouse by gavage). Glucose levels were measured at 0, 15, and 30 min after Coca Cola administration.

In experiment [3] the test system is APAP-mediated liver toxicity in male adult mice. Nature of the experiment: Acetaminophen (APAP) mediated liver toxicity, serum ALT. The class given is in vivo. Conditions: APAP 4.6 mg/mouse; oral treatment 1 hour after APAP, GC 3 mg/mouse or C:E 30 μl/mouse; 24 hours after APAP; control 15612. Here is the method:
Acetaminophen powder (APAP; was purchased from Sigma, cat. # A7085), was dissolved in a mixture of 30% Cremophor EL (Sigma, Rehovot, Israel) and ethanol (1:1) in DDW (Di distilled water).
(§1) Mice were tested for serum alanine transaminase (ALT) and aspartate aminotransferase (AST) at 24 hours after acetaminophen administration. Serum AST and ALT levels were measured by an automatic analyzer.
APAP-mediated liver toxicity was induced in male adult mice fasted overnight and 2 hours after APAP administration. APAP was i.v. injected at the concentration of 4.6 mg/mouse. Various treatments, GC or C:E alone, GC with C:E and controls, were administered 1 hour after APAP injection. For various oral treatments, C:E: Cremophor:ethanol 1:1 solution was administered (30 μl/mouse); GC with CE: 100 mg GC dissolved in 1 ml C:E or GC in ethanol: 100 mg GC dissolved in 1 ml Ethanol Abs. were administered (3 mg/mouse); Control:PBS administered (30 μl/mouse).
All mice were sacrificed 24 hours after APAP administration and serum levels of ALT were measured.

For experiment [4], the system named is alcohol induced liver damage mouse model. Put plainly: Alcohol induced liver damage in a mouse model, ALT. Format: in vivo. To be noted: mice, alcohol 6 gr/kg by gavage with 6 microgram GC; after 16 hours; EtOH alone 414, naive 28. Here is the method:
The inventors further characterized the ameliorating effect of the GC—the alcohol induced liver damage in a mouse model. Table 9 summarizes the relevant experimental groups, including group A of naïve mice; group B receiving alcohol 6 gr/kg-300 μl of 70% Ethanol per mouse/gavage i.e. 3500 μl EtOH Abs.+1500 μl sterile water (Ethanol is equal to 6 gr/kg for 27.5 gr mouse body weight).; Group C receiving 6 microgram of GC with alcohol. Mice were sacrificed after 16 hours and the level of liver enzymes was evaluated.

In experiment [5] the test system is C57B1/6 mice. Put plainly: Glucose tolerance test (GTT) in mice after Coca Cola with GC in C:E, GC in ethanol or C:E (Table 5, FIG. 5). The class given is in vivo. To be noted: Coca Cola + add-on. Here is the method:
Male C57B1/6 mice (11-12 weeks old) were obtained from Harlan Laboratories (Jerusalem, Israel) and maintained in the Animal Core of the Hadassah-Hebrew University Medical School. All mice were administered standard laboratory chow and water ad libitum and kept in a 12-hour light/dark cycle. SSBs (Coca Cola or orange flavored soda) including additives GC and/or CE were orally administered in a volume of 300-350 μl per mouse by gavage. The animal experiments were carried out according to the guidelines of the Hebrew University-Hadassah Institutional Committee for Care and Use of Laboratory Animals and with the committee's approval.
Beta-glucosylceramide (GC) solution consisted of 60 mg GC (purchased from Avanti Polar Lipids; Alabaster, Ala., USA) dissolved in 1 ml mixture of 30% Cremophor EL (Sigma, Rehovot, Israel) and ethanol (1:1; CE) or ethanol alone. These served basis for preparation of SSBs containing GC and/or CE, including 1800 μl Coca Cola or other SSB and 400 μl GC in CE or ethanol or CE alone.
Mice undergo a glucose tolerance test on day 60. Glucose is administered orally (1 g per kg). Serum glucose measurements is performed on tail-vein blood every fifteen minutes for three hours. Glucose levels are measured by a standard glucometer. […]

Experiment [6] has as its system ConA mouse model. Nature of the experiment: Concanavalin A (ConA) induced immune-mediated hepatitis, serum ALT and AST. Format: in vivo, mice. Conditions: ConA 0.5 mg/mouse i.v., oral GC 3 mg/mouse or C:E 30 μl/mouse, 15 hours following ConA. Here is the method:
Concanavalin A solution (ConA; purchased from MP Biomedicals, USA) consisted of 2 mg ConA in 1 ml distilled water. Mice were intravenously (IV) injected with 250 μl ConA solution (0.5 mg/mouse).
as §1
The inventors next examined the effect of the combination of GC and C:E on the immune-mediated hepatitis in Con A mouse model. Details on the relevant experimental procedures are given above in experimental procedures. In brief, mice were injected i.v. with 250 μl ConA (0.5 mg/mouse) for 15 hrs prior to oral treatments, including C:E: ethanol 1:1 solution administered (30 μl/mouse); GC with CE as 100 mg GC dissolved in 1 ml C:E or GC in ethanol as 100 mg GC dissolved in 1 ml ethanol abs. administered (3 mg/mouse); control as PBS administered (30 μl/mouse).

With Beta-glucosylceramide [GC], the Glucose came to 128 mg % in experiment [1] (time 15 min); 135 mg % in experiment [1] (time 30 min); 152 mg % in experiment [1] (time 45 min); 132 mg % in experiment [1] (time 60 min); 124 mg % in experiment [1] (time 75 min); 124 mg % in experiment [1] (time 90 min). Besides, the Glucose in experiment [1] (time 105 min) is 96 mg %; in experiment [1] (time 120 min), 96 mg %; in experiment [1] (overnight fast, time 0 min), 95 mg %. Besides, the “AUC 30 minutes (blood sugar levels)” value in experiment [2] is given as 4381.25 ± 320. In addition, the “ALT (serum)” value in experiment [3] is given as 9290; in experiment [6] (control 8887), 1875. Besides, the ALT levees in experiment [4] is on record as 73. In addition, the “AUC at 30 minutes, effect compared to controls (FIG. 5B)” value in experiment [5] was “significant”. The “AST (serum)” value in experiment [6] (control 8807) is given as 2231.
